Results taken from US9771369B2, “Compounds and methods for kinase modulation, and indications therefor” (Plexxikon Inc., priority 2014, dated 2017).

The molecules below were run against c-Kit kinase (Homo sapiens (Human), UniProt P10721) (assay: c-Kit biochemical assay (AlphaScreen kinase activity)).
Chain of c-Kit kinase (P10721 26-976): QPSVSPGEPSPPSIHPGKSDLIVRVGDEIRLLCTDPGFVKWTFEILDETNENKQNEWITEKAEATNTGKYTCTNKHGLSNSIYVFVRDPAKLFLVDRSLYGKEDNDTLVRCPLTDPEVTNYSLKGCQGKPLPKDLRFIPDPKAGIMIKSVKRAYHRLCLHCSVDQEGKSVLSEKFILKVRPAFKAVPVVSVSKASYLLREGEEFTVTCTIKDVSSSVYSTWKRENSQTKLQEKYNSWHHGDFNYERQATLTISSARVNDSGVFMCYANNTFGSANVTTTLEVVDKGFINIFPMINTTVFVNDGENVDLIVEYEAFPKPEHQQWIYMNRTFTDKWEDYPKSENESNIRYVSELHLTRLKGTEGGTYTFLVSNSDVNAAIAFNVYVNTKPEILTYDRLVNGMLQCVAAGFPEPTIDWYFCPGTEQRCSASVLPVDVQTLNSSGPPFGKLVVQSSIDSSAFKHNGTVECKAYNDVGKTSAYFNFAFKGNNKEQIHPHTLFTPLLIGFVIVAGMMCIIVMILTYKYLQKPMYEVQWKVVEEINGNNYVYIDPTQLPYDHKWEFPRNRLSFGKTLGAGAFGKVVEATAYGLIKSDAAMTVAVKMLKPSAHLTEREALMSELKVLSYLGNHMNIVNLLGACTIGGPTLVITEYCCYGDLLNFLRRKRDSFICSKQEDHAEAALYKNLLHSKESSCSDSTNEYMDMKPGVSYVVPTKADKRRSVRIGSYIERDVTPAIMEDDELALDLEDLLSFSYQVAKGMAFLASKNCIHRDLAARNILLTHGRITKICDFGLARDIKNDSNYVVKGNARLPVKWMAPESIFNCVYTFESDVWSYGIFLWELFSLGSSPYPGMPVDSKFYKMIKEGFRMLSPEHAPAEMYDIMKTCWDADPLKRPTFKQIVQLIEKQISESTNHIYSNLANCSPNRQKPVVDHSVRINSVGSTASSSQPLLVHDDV
Outline: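 IC50 values come from 8-point, 1:3 compound titrations measuring inhibition of peptide phosphorylation by c-Kit (commercial or His-tagged E. coli-expressed) over 1 h at room temperature, read by AlphaScreen PY30/streptavidin beads. Low-ATP version: 10 μM ATP, 100 nM biotin-(E4Y)3; high-ATP version: 100 μM ATP, 30 nM biotin-(E4Y)10.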
`CCOc1ccc(-c2[nH]c(C3(C)CCN(c4ncnc5[nH]c(-c6ccc(C#N)cc6)cc45)CC3)nc2C)cc1` [P-3161, 4-[4-[4-[5-(4-ethoxyphenyl)-4-methyl-1H-imidazol-2-yl]-4-methyl-1-piperidyl]-7H-pyrrolo[2,3-d]pyrimidin-6-yl]benzonitrile] gave an IC50 of 0.0001 to 1 µM. Work on `Cc1nc(C2CCN(c3ncnc4[nH]c(-c5ccc(C#N)cc5)cc34)CC2)[nH]c1-c1ccc(C(F)F)cc1` [P-3162, 4-[4-[4-[5-[4-(difluoromethyl)phenyl]-4-methyl-1H-imidazol-2-yl]-1-piperidyl]-7H-pyrrolo[2,3-d]pyrimidin-6-yl]benzonitrile] yielded an IC50 of 1 to 10 µM. Work on `COc1ccc(-c2[nH]c(C3(C)CCN(c4ncnc5[nH]c(-c6ccc(C#N)cc6)cc45)CC3)nc2C)cc1F` [P-3163, 4-[4-[4-[5-(3-fluoro-4-methoxy-phenyl)-4-methyl-1H-imidazol-2-yl]-4-methyl-1-piperidyl]-7H-pyrrolo[2,3-d]pyrimidin-6-yl]benzonitrile] yielded an IC50 of 0.0001 to 1 µM. For `Cc1nc(C2(C)CCN(c3ncnc4[nH]c(-c5ccc(C#N)cc5)cc34)CC2)[nH]c1-c1ccc(C(F)F)cc1` [P-3164, 4-[4-[4-[5-[4-(difluoromethyl)phenyl]-4-methyl-1H-imidazol-2-yl]-4-methyl-1-piperidyl]-7H-pyrrolo[2,3-d]pyrimidin-6-yl]benzonitrile], the IC50 was 0.0001 to 1 µM. In the case of `Cc1cc2c(N3CCC(C)(c4nc(C)c(-c5ccc(C(F)(F)F)cc5)[nH]4)CC3)ncnc2[nH]1` [P-3165, 6-methyl-4-[4-methyl-4-[4-methyl-5-[4-(trifluoromethyl)phenyl]-1H-imidazol-2-yl]-1-piperidyl]-7H-pyrrolo[2,3-d]pyrimidine], the IC50 was 1 to 10 µM. Work on `COc1cccc(-c2[nH]c(C3(C)CCN(c4ncnc5[nH]c(C)cc45)CC3)nc2C)c1` [P-3166, 4-[4-[5-(3-methoxyphenyl)-4-methyl-1H-imidazol-2-yl]-4-methyl-1-piperidyl]-6-methyl-7H-pyrrolo[2,3-d]pyrimidine] yielded an IC50 of 1 to 10 µM. Work on `COc1cccc(-c2[nH]c(C3(C)CCN(c4ncnc5[nH]c(-c6ccc(C#N)cc6)cc45)CC3)nc2C)c1` [P-3167, 4-[4-[4-[5-(3-methoxyphenyl)-4-methyl-1H-imidazol-2-yl]-4-methyl-1-piperidyl]-7H-pyrrolo[2,3-d]pyrimidin-6-yl]benzonitrile] yielded an IC50 of 0.0001 to 1 µM. `COc1cccc(-c2[nH]c(C3(C)CCN(c4ncnc5[nH]c(-c6cnn(C(F)F)c6)cc45)CC3)nc2C)c1` [P-3168, 6-[1-(difluoromethyl)pyrazol-4-yl]-4-[4-[5-(3-methoxyphenyl)-4-methyl-1H-imidazol-2-yl]-4-methyl-1-piperidyl]-7H-pyrrolo[2,3-d]pyrimidine] gave an IC50 of 0.0001 to 1 µM. Work on `COc1cccc(-c2[nH]c(C3(C)CCN(c4ncnc5[nH]c(-c6ccc(OC)nc6)cc45)CC3)nc2C)c1` [P-3169, 4-[4-[5-(3-methoxyphenyl)-4-methyl-1H-imidazol-2-yl]-4-methyl-1-piperidyl]-6-(6-methoxy-3-pyridyl)-7H-pyrrolo[2,3-d]pyrimidine] yielded an IC50 of 0.0001 to 1 µM. Work on `CCOc1ccc(-c2[nH]c(C3(C)CCN(c4ncnc5[nH]c(-c6cnn(C(F)F)c6)cc45)CC3)nc2C)cc1` [P-3170, 6-[1-(difluoromethyl)pyrazol-4-yl]-4-[4-[5-(4-ethoxyphenyl)-4-methyl-1H-imidazol-2-yl]-4-methyl-1-piperidyl]-7H-pyrrolo[2,3-d]pyrimidine] yielded an IC50 of 0.0001 to 1 µM. `Fc1ccc(-c2cc3c(N4CCC(c5nnc(-c6cccc(OC(F)F)c6)[nH]5)CC4)ncnc3[nH]2)cc1` [P-3204, 4-[4-[5-[3-(difluoromethoxy)phenyl]-4H-1,2,4-triazol-3-yl]-1-piperidyl]-6-(4-fluorophenyl)-7H-pyrrolo[2,3-d]pyrimidine] gave an IC50 of 10 to 300 µM. In the case of `COc1cc(-c2cc3c(N4CCC(c5nnc(-c6ccc(F)cc6)[nH]5)CC4)ncnc3[nH]2)ccn1` [P-3205, 4-[4-[5-(4-fluorophenyl)-4H-1,2,4-triazol-3-yl]-1-piperidyl]-6-(2-methoxy-4-pyridyl)-7H-pyrrolo[2,3-d]pyrimidine], the IC50 was 10 to 300 µM.
